Results published in patent publication US12409174B2, “Combination of zibotentan and dapagliflozin for the treatment of endothelin related diseases” (priority 2020, dated 2025).
Like-named read-outs stand apart in the source and are kept apart here.

Legend:
[1] = tested on: patients with CKD with and without type 2 diabetes; conditions: dapagliflozin 10 mg
Protocol: The effect of dapagliflozin on albuminuria was investigated in patients with CKD with and without type 2 diabetes. In this analysis from the Phase 3 DAPA CKD trial, the efficacy of dapagliflozin was assessed to determine whether treatment with dapagliflozin reduces the level of albuminuria in patients with CKD.
In the trial, 4304 patients with estimated glomerular filtration rate 25-75 mL/min/1·73 m2 and urinary UACR 200-5000 mg/g were randomized to dapagliflozin (10 mg) or placebo. Change in albuminuria was assessed as the mean change in log-transformed UACR from baseline to end of study. Regression in UACR stage, defined as a transition from macroalbuminuria (≥300 mg/g) to micro- or normoalbuminuria (<300 mg/g), and progression in UACR stage, defined as a transition from <3000 mg/g to ≥3000 mg/g, were additional endpoints.

[2] = Zibotentan blood concentrations, Experiment 1; format: in vivo, male Wistar rats; conditions: male, Wistar, rat, whole blood, oral, Exp 1; for concentration at 4 h: 4 hr post first dose
Protocol: (§1) In the first experiment (Experiment 1), the effect of zibotentan on haematocrit (Hct) concentration was determined when zibotentan was administered peroral (p.o) QD for 14 days. […] Animals were weighed daily prior to dosing throughout the experiment. Blood samples (20 μL) for bioanalysis were taken at 4 and 24 hr after the first dose via the tail vein from conscious animals and 24 hr after the last dose via retroorbital route from anesthetized animals. Blood samples were collected via tail vein (100 μL) for Hct concentration and haemoglobin (Hb) measurements, on day 7 and on day 14, 1-2 hr after dosing. Twenty-four hour urine was collected for the measurement of urinary glucose, urine volume and electrolytes between doses nine and ten. Animals were terminated 24 hr after the last dose. On the day of termination, animals were anesthetized using 5% isoflurane, and blood was collected via the retroorbital route (in heparin-coated microvette, Sarsted) and centrifuged at 3,500 rpm at 4° C. for 10 minutes, plasma was collected and stored at −80° C. degrees prior to analysis. Animals were then euthanized by the removal of the heart. Both the heart and the kidneys were extracted and weighed. From the right kidney, a 4 mm thick slice of tissue was collected and fixed in 4% formaldehyde for subsequent histological analysis and a piece of cortical kidney tissue and heart tissue was collected for gene expression analysis.
A volume of 20 μL whole blood was precipitated with 150 μL acetonitrile containing internal standard and quickly vortexed, followed by a 20 min centrifugation at 3220 g and 4° C. […] Zibotentan samples were further diluted twice and three times at a 1:10 ratio with 33% acetonitrile, to ensure all diluted samples were detectible within the calibration range.
Sample concentrations were determined against matrix-spiked calibration standards over a range of 0.010 μM-10.0 μM for dapagliflozin and 0.75 μM-376 μM for zibotentan, applying weighted linear regression (1/X^2) using Waters TargetLynx software version XS V4.2 SCN986. […] Analytical bias was <15% over the concentration range for both analytes.
Separation was achieved using the following elution gradient: 0 min to 1.5 min, 4% B ramping up to 95% B; 1.5 min to 2.3 min, kept at 95% B; 2.3 min to 2.4 min, 95% B to 4% B and kept at 4% B until 2.7 min. The flow rate was 0.7 mL/min.

[3] = tested on: male Wistar rats on 4% salt diet; test: Effect of zibotentan on haematocrit (Hct) concentration, Experiment 1; format: in vivo; conditions: Exp 1; for Hct concentration compared to vehicle: FIG. 4
Protocol: The effect of dapagliflozin and zibotentan on haematocrit (Hct) concentration in male Wistar rats on 4% salt diet was investigated.
as §1
For Hct and Hb analysis, 100 μl of blood from rat's tail vein was collected and measured using CG8 cartridges analysed with an iSTAT instrument (Abbott Point of Care Inc, Abbot Park, IL, USA).
(§2) Significance was set at p<0.05.

[4] = Effect of zibotentan on body weight, Experiment 1; format: in vivo, male Wistar rats; conditions: Exp 1; for Body weight, Difference in means vs Vehicle: log scale, linear mixed effects model
Protocol: as §1, §2

[5] = tested on: male Wistar rats on 4% salt diet; test: Effect of zibotentan on plasma Na, K, glucose and urea, Experiment 1; format: in vivo; conditions: Exp 1
Protocol: as §1
(§3) Plasma and Urine Albumin, Creatinine, Glucose, Urea, Potassium and Sodium levels were analyzed using an ABX Pentra 400 instrument (Horiba Medical, Irvine, California, USA) according to the manufacturers protocol.
as §2

[6] = tested on: male Wistar rats on 4% salt diet; test: Effect of zibotentan on urinary volume and Na, K, urea, creatinine, glucose in the urine, Experiment 1; format: in vivo; conditions: Exp 1; for Urine Creatine / Urine Glucose / Urine K / Urine Na / Urine Urea / Urine volume: 24 hr urine between doses nine and ten
Protocol: as §1, §3, §2

[7] = tested on: male Wistar rats on 4% salt diet; test: Effect of zibotentan on kidney and heart weight, Experiment 1; format: in vivo
Protocol: as §1, §2

[8] = Exp 1, Zibo 30 mg/kg p.o. QD 14 days
[9] = Exp 1, Zibo 100 mg/kg p.o. QD 14 days
[10] = Exp 1, Zibo 300 mg/kg p.o. QD 14 days
[11] = Exp 1, zibotentan 100 mg/kg, 14 days

CCOc1ccc(Cc2cc([C@@H]3O[C@H](CO)[C@@H](O)[C@H](O)[C@H]3O)ccc2Cl)cc1 [Dapa, (1S)-1,5-anhydro-1-{4-chloro-3-[(4-ethoxyphenyl)methyl]phenyl}-D-glucitol]
Progression in UACR stage, hazard ratio ([1]; 3820 patients with UACR<3000 mg/g at baseline, 95% CI 0.32-0.52): 0.41
Regression in UACR stage, hazard ratio ([1]; 3860 patients with UACR≥300 mg/g at baseline, 95% CI 1.60-2.05): 1.81
UACR reduction compared to placebo ([1]; CKD patients with and without type 2 diabetes, baseline to end of study, 95% CI 25.2-33.1%): 29.3%
UACR reduction compared to placebo ([1]; CKD patients with type 2 diabetes, 95% CI 30.6-39.4%): 35.1%
UACR reduction compared to placebo ([1]; CKD patients without type 2 diabetes, 95% CI 5.9-22.9%): 14.8%

COc1nc(C)cnc1NS(=O)(=O)c1cccnc1-c1ccc(-c2nnco2)cc1 [Zibo, N-(3-methoxy-5-methylpyrazin-2-yl)-2-[4-(1,3,4-oxadiazol-2-yl)phenyl]pyridine-3-sulfonamide]
concentration at 24 h ([2]; 30 mg/kg, Zibo 30 mg/kg p.o. QD 14 days, 24 hr post last dose): 7.39 ± 10.4 µM
concentration at 4 h ([2]; 30 mg/kg, Zibo 30 mg/kg p.o. QD): 53.8 ± 17.4 µM
concentration at 24 h ([2]; 30 mg/kg, Zibo 30 mg/kg p.o. QD, 24 hr post first dose): 4.68 ± 3.93 µM
concentration at 24 h ([2]; 100 mg/kg, Zibo 100 mg/kg p.o. QD 14 days, 24 hr post last dose): 39 ± 32.4 µM
concentration at 4 h ([2]; 100 mg/kg, Zibo 100 mg/kg p.o. QD): 134 ± 43.8 µM
concentration at 24 h ([2]; 100 mg/kg, Zibo 100 mg/kg p.o. QD, 24 hr post first dose): 39.1 ± 38.1 µM
concentration at 24 h ([2]; 300 mg/kg, Zibo 300 mg/kg p.o. QD 14 days, 24 hr post last dose): 249 ± 193 µM
concentration at 4 h ([2]; 300 mg/kg, Zibo 300 mg/kg p.o. QD): 247 ± 46 µM
concentration at 24 h ([2]; 300 mg/kg, Zibo 300 mg/kg p.o. QD, 24 hr post first dose): 176 ± 108 µM
Hct concentration compared to vehicle (significant decrease?) ([3]; zibotentan 30 mg/kg p.o. QD, day 14): not for the lower dose
Hct concentration compared to vehicle ([3]; zibotentan 30, 100 and 300 mg/kg p.o. QD, day 7): significant (p<0.05) decrease
Hct concentration compared to vehicle ([3]; zibotentan 100 and 300 mg/kg p.o. QD, day 14): significant (p<0.05) decrease
Body weight, Difference in means vs Vehicle ([4]; Zibo 30 mg/kg p.o. QD 14 days): 0.02
Body weight, Difference in means vs Vehicle ([4]; Zibo 100 mg/kg p.o. QD 14 days): 0.02
Body weight, Difference in means vs Vehicle ([4]; Zibo 300 mg/kg p.o. QD 14 days): 0.01
Body weight change compared to vehicle ([4]; zibotentan 30, 100 and 300 mg/kg): no difference
Plasma Glucose ([5]; Zibo 30 mg/kg p.o. QD 14 days): 9.76 ± 0.28 mmol/L
Plasma K ([5]; Zibo 30 mg/kg p.o. QD 14 days): 4.50 ± 0.06 mmol/L
Plasma Na ([5]; Zibo 30 mg/kg p.o. QD 14 days): 137.0 ± 0.96 mmol/L
Plasma Urea ([5]; Zibo 30 mg/kg p.o. QD 14 days): 4.64 ± 0.20 mmol/L
Plasma Glucose ([5]; Zibo 100 mg/kg p.o. QD 14 days): 9.65 ± 0.30 mmol/L
Plasma K ([5]; Zibo 100 mg/kg p.o. QD 14 days): 4.52 ± 0.06 mmol/L
Plasma Na ([5]; Zibo 100 mg/kg p.o. QD 14 days): 137.2 ± 0.97 mmol/L
Plasma Urea ([5]; Zibo 100 mg/kg p.o. QD 14 days): 4.77 ± 0.25 mmol/L
Plasma Glucose ([5]; Zibo 300 mg/kg p.o. QD 14 days): 9.34 ± 0.13 mmol/L
Plasma K ([5]; Zibo 300 mg/kg p.o. QD 14 days): 4.76 ± 0.09 mmol/L
Plasma Na ([5]; Zibo 300 mg/kg p.o. QD 14 days): 139.4 ± 0.86 mmol/L
Plasma Urea ([5]; Zibo 300 mg/kg p.o. QD 14 days): 4.94 ± 0.39 mmol/L
Level of Na, K, glucose and urea in the plasma compared to vehicle ([5]; different doses of zibotentan): no change
Urine Creatine ([6]; Zibo 30 mg/kg p.o. QD): 88.8 ± 3.3 µmol
Urine Glucose ([6]; Zibo 30 mg/kg p.o. QD): 0.01 ± 0.0 mmol
Urine K ([6]; Zibo 30 mg/kg p.o. QD): 1.57 ± 0.05 mmol
Urine Na ([6]; Zibo 30 mg/kg p.o. QD): 14.05 ± 0.95 mmol
Urine Urea ([6]; Zibo 30 mg/kg p.o. QD): 6.19 ± 1.71 mmol
Urine volume ([6]; Zibo 30 mg/kg p.o. QD): 28.19 ± 2.99 mL
Urine Creatine ([6]; Zibo 100 mg/kg p.o. QD): 82.8 ± 2.5 µmol
Urine Glucose ([6]; Zibo 100 mg/kg p.o. QD): 0.02 ± 0.0 mmol
Urine K ([6]; Zibo 100 mg/kg p.o. QD): 1.52 ± 0.06 mmol
Urine Na ([6]; Zibo 100 mg/kg p.o. QD): 13.01 ± 1.07 mmol
Urine Urea ([6]; Zibo 100 mg/kg p.o. QD): 4.04 ± 0.39 mmol
Urine volume ([6]; Zibo 100 mg/kg p.o. QD): 23.88 ± 2.02 mL
Urine Creatine ([6]; Zibo 300 mg/kg p.o. QD): 82.9 ± 3.3 µmol
Urine Glucose ([6]; Zibo 300 mg/kg p.o. QD): 0.18 ± 0.1 mmol
Urine K ([6]; Zibo 300 mg/kg p.o. QD): 1.44 ± 0.03 mmol
Urine Na ([6]; Zibo 300 mg/kg p.o. QD): 13.76 ± 0.76 mmol
Urine Urea ([6]; Zibo 300 mg/kg p.o. QD): 4.60 ± 0.19 mmol
Urine volume ([6]; Zibo 300 mg/kg p.o. QD): 29.09 ± 2.74 mL
Level of urinary volume, Na, K, urea, creatinine and glucose compared to vehicle ([6]; different doses of zibotentan): no change
Kidney/tibia length [7]: 54.00 ± 0.80 mg/mm
Heart weight [7, 8]: 1.00 ± 0.02 g
Heart/tibia length [7, 8]: 25.00 ± 0.47 mg/mm
Kidney weight [7, 8]: 2.13 ± 0.04 g
Heart weight [7, 9]: 1.05 ± 0.01 g
Heart/tibia length [7, 9]: 27.00 ± 0.37 mg/mm
Kidney weight [7, 9]: 2.16 ± 0.05 g
Kidney/tibia length [7, 9]: 55.0 ± 1.65 mg/mm
Heart weight [7, 10]: 0.98 ± 0.00 g
Heart/tibia length [7, 10]: 25.00 ± 0.24 mg/mm
Kidney/tibia length [7, 10]: 57.0 ± 1.39 mg/mm
Heart weight compared to vehicle [7, 11]: increase
Heart weight increase after normalizing with tibia length [7, 11]: not statistically significant
Kidney weight with or without normalizing with tibia length compared to vehicle ([7]; Exp 1, zibotentan 300 mg/kg, 14 days): increase
